Source: publication PMC7027018 (BMC Chemistry, 2020)

Assays:
hMAO-A [1] = biological target: T1, hMAO-A (Homo sapiens, UniProt P21397); assay: hMAO-A inhibitory activity, Amplex Red continuous fluorometric assay; assay type: biochemical; details: recombinant hMAO-A, p-tyramine substrate, mean SEM
T1 construct: purchased Sigma-Aldrich; host or cells: insect cells (BTI-TN-5B14), recombinant baculovirus
T1 sequence (P21397 1-527): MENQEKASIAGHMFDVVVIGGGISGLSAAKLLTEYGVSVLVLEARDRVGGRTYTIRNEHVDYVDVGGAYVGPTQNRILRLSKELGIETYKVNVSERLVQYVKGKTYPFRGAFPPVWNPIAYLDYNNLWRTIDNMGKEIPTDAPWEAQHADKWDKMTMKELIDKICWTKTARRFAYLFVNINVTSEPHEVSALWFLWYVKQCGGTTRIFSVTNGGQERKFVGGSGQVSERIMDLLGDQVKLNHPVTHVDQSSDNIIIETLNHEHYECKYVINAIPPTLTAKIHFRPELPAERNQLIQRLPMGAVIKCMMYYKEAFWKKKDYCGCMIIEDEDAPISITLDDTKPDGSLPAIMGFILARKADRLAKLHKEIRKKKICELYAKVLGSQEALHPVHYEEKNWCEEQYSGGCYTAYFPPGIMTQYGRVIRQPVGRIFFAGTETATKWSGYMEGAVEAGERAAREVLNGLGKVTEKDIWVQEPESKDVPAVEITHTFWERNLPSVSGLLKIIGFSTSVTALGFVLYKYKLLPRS
Method: (§1) The synthesized derivatives were screened for the hMAO-A and hMAO-B inhibitory activities by using an extremely sensitive continuous fluorometric assay containing Amplex Red (10-acetyl-3, 7-dihydroxyphenoxazine) reagent. The enzymatic H2O2 was measured with and without extracts or standards.
(§2) Unless otherwise noted, the analytical grade chemicals required for synthesis and antioxidant activity procured from Sigma Aldrich, Merck, Hi-media Laboratories. The analytical assessment of the synthesized derivatives for hMAO inhibition was measured by their effects on the generation of hydrogen peroxide (H2O2) by p-tyramine (a general substrate for both MAO isoforms), utilizing the Amplex Red MAO assay kit (Sigma USA) and microsomal MAO enzymes extracted by insect cells (BTI-TN-5B14) expressed on recombinant baculovirus containing cDNA probes for MAO isoforms (Sigma-Aldrich USA) were used as source for the two microsomal MAO isoforms. The progress of the reaction was cheeked through thin layer chromatography TLC executed on 0.25 mm pre-coated plates with silica gel procured from Merck, and the spots were envisaged in iodine chamber and UV cabinet, in mobile media TLC-hexane:toluene:ethyl acetate (1:1:1). Melting points were recorded on Sonar melting point apparatus in open capillary tubes. The nuclear magnetic resonance (NMR) spectra 1H NMR and ^13C NMR spectra were determined in DMSO and deuterated CDCl3 respectively on a spectrometer (Model: Bruker Avance II 400 NMR). Coupling constants J are in hertz (Hz) (Additional file 1). Spectral data for infrared (IR) was confirmed on Perkin Elmer FTIR spectrophotometer by using KBr pellets technique.
(§3) Human MAO-A and -B recombinant enzymes (Sigma-Aldrich) 5 mg ml^−1 were pre-aliquoted and placed at − 70 °C. The interactions of the titled compounds with hMAO isoforms were evaluated through a fluorimetric method based on the H2O2 formation rendered by MAO isoforms was identified by utilizing the non-fluorescent, extremely susceptible and stable probe Amplex®-Red reagent (10-acetyl-3,7-dihydroxyphenoxazine), which reacts with H2O2 in the existence of horseradish peroxidase to generate resorufin which is a fluorescent component. […] By the incubation time, the reaction was initiated via the addition of 200 μM Amplex Red reagent, 1 mM p-tyramine (general substrate for both MAO isoforms) and 1 U ml^−1 horseradish peroxidase (HRP). […] The calculation of specific fluorescence emission (used to obtain the final results) was carried out by subtraction of background action that was identified by the cuvettes comprising all reagents except the MAO isoforms, which were changed by a sodium phosphate buffer solution. The preparation of stock solutions and all reagents was done newly each day in deionized water and kept at − 20 °C. Data were processed in Microsoft Excel, to calculate IC50 values.
(§4) The enzymatic kinetic factors maximum reaction rate (Vmax) and Michaelis–Menten constant (Km) were computed by GraphPad Prism Software 6.02 (San Diego, CA, USA). The IC50 values were determined by nonlinear regression best fit model of normalized response with variable slope. Lineweaver–Burk plot was obtained from Michaelis–Menten data. The Michaelis–Menten constant (Km) is the concentration of […]. Relative selectivity (RS) folds were defined by the ratio of hMAO-A IC50 to hMAO-B IC50. The inhibition mechanism was identified by the double reciprocal plot (Lineweaver–Burk curves) by plotting the inverse of the substrate concentration (1/S) as a function against the inverse of initial velocity (1/V).

hMAO-B = biological target: T2, hMAO-B (Homo sapiens, UniProt P27338); assay: hMAO-B inhibitory activity, Amplex Red continuous fluorometric assay; assay type: biochemical; details: for Selectivity index: IC50 (MAO-A)/IC50 (MAO-B); for IC50: recombinant hMAO-B, p-tyramine substrate, Amplex Red, mean SEM
T2 construct: purchased Sigma-Aldrich; host or cells: insect cells (BTI-TN-5B14), recombinant baculovirus
T2 sequence (P27338 1-520): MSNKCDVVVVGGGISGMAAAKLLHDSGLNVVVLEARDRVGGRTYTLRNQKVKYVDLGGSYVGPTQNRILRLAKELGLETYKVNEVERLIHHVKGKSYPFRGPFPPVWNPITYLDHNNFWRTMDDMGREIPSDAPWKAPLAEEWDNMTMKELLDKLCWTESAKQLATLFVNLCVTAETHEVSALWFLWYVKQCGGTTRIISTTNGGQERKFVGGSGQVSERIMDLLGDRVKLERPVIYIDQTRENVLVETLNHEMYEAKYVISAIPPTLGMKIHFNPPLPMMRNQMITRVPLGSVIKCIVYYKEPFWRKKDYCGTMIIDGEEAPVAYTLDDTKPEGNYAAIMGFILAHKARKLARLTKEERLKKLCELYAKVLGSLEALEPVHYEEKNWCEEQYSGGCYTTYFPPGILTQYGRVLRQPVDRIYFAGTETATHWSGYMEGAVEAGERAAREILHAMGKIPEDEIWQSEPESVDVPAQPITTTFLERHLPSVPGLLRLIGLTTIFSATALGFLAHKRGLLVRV
Method: as §1, §2, §3, §4

[2] = DPPH radicals scavenging activity; details: absorbance at 517 nm, 30 min at 37 °C; mean ± SEM, n = 3
Description: Besides their inhibitory action on hMAO the antioxidant potential of synthesized compounds was investigated using 1,1-Diphenyl-2-picrylhydrazyl (DPPH) assay. DPPH was utilized as a stable free radical because free radicals simulate reactive nitrogen and oxygen species distressing neurological structure.
The DPPH method is one of the most proficient techniques to assess the radical-scavenging action by a chain-breaking mechanism. […] DPPH is stable free radical on room temperature, however on acceptance of a hydrogen/electron radical it turns into a stable diamagnetic molecule. The scavenging activity of DPPH radical is assessed by the reduction in its optical density at 5l7 nm, rendered by antioxidants. This phenomenal feature of DPPH is due to the reaction among antioxidant compounds and radicals, leads to the scavenging of the free radical via donated hydrogen. It manifested visually as the color bleaches from purple to yellow. Therefore, DPPH is generally utilized as a substrate to estimate the ant oxidative potential. Different concentrations of around […] (25, 50, 75, and 100) µg ml^−1 of the titled derivatives were suspended in methanol and mixed with 5 ml of a 0.004% methanol solution of DPPH. Subsequently the all dilutions were subjected to incubation for 30 min at 37 °C temperature; finally, at 517 nm the absorbance was measured against a blank. Ascorbic acid was utilized as a reference while and all the experiments were performed in triplicate. […] DPPH free radical scavenging of compounds was calculated as scavenging activity for DPPH (%) = [(Ac − At)/Ac] × 100 Where Ac is the absorbance of the control reaction At is the absorbance of the test compound. The absorbance was measured with UV/Vis Epoch ELISA reader at 517 nm, and antioxidant activity was measured as a decrease in absorbance of DPPH·.

[3] = Hydrogen peroxide scavenging (H2O2) assay; details: absorption at 230 nm, 10 min incubation, phosphate buffer pH 7.4; mean ± SEM, n = 3
Method: H2O2 is quickly decomposed into oxygen and water and this could generate hydroxyl radicals (OH) that may commence DNA damage in the body and lipid peroxidation. The hydrogen peroxide inhibitory activity of newly synthesized compounds was assessed by the technique illustrated by Nakano and coworkers with some modifications. In phosphate buffer (40 mM pH 7.4) the solution of hydrogen peroxide (40 mM) was prepared and different concentrations of titled compounds (05–80 μg ml^−1) were added to H2O2 solution (2 ml). The concentration of hydrogen peroxide is determined by absorption at 230 nm using a spectrophotometer after 10 min of incubation. Blank reading was noted of phosphate buffer without H2O2. The percentage of hydrogen peroxide inhibition was anticipated by the formula [(Ab − At)/[…]] × 100, where Ab is the absorbance of the control and At is the absorbance of compounds/standard taken as L-ascorbic acid (05–80 μg ml^−1). UV/Vis Epoch ELISA reader was used to measure as a decrease in absorbance in the 96 wells (Table 5).

hMAO-A [4] = biological target: T1, hMAO-A; assay: Kinetic study (Lineweaver-Burk) of hMAO-A inhibition; assay type: biochemical; details: Lineweaver-Burk plots, p-tyramine substrate
Description: The kinetic study by the Lineweaver–Burk plots, carried out to explicates the type of inhibition by compounds 7, 15 shown their significant inhibitory potential towards hMAO-A and hMAO-B, respectively. Reaction mixtures composing of five diverse concentrations of p-tyramine was used as a common substrate in the presence or absence of compounds.
as §4

Row | IC50 (hMAO-A [1]) | Selectivity index (hMAO-B) | IC50 (hMAO-B) | IC50 [2] | IC50 [3] | type of hMAO-A inhibition (hMAO-A [4]) | SMILES
1 | 60.19 ± 0.087 µM | 4.241 | 14.19 ± 0.007 µM | 5.553 ± 0.007 µM | 8.279 ± 0.017 µM |  | O=C(/C=C/C=C/c1ccc2c(c1)OCO2)Nc1ccc(Br)cc1 [Compound 5]
2 | 15.38 ± 0.071 µM | 0.294 | 52.2 ± 0.006 µM | 8.815 ± 0.019 µM | 9.495 ± 0.045 µM | competitive | O=C(/C=C/C=C/c1ccc2c(c1)OCO2)Nc1cccc2ccccc12 [Compound 7]
3 | 22.19 ± 0.07 µM |  | 71.01 ± 0.005 µM | 12.35 ± 0.021 µM | 13.98 ± 0.01 µM |  | O=C(/C=C/C=C/c1ccc2c(c1)OCO2)N1CCOCC1 [Compound 9]
4 | 33.72 ± 0.071 µM | 1.637 | 20.59 ± 0.006 µM | 14.15 ± 0.011 µM | 17.57 ± 0.091 µM |  | CC1CCC(C(C)C)C(OC(=O)/C=C/C=C/c2ccc3c(c2)OCO3)C1 (stereo not drawn) [Compound 11]
5 | 24.53 ± 0.002 µM | 0.371 | 65.99 ± 0.002 µM | 10.7 ± 0.035 µM | 11.35 ± 0.004 µM |  | O=C(/C=C/C=C/c1ccc2c(c1)OCO2)Oc1ccc2ccc(=O)oc2c1 [Compound 13]
6 | 32.33 ± 0.043 µM | 1.512 | 21.37 ± 0.007 µM | 17.15 ± 0.026 µM | 23.76 ± 0.021 µM |  | Cc1ccc(C(C)C)cc1OC(=O)/C=C/C=C/c1ccc2c(c1)OCO2 [Compound 17a]
7 | 30 ± 0.005 µM | 1.675 | 17.9 ± 0.038 µM | 8.281 ± 0.001 µM | 10.09 ± 0.013 µM |  | COc1cc(C=O)ccc1OC(=O)/C=C/C=C/c1ccc2c(c1)OCO2 [Compound 17b]
8 | 16.11 ± 0.091 µM | 0.609 | 26.44 ± 0.063 µM | 16.52 ± 0.012 µM | 15.71 ± 0.014 µM |  | C=CCc1ccc(OC(=O)/C=C/C=C/c2ccc3c(c2)OCO3)c(OC)c1 [Compound 17c]
9 | 19.01 ± 0.031 µM | 1.081 | 17.57 ± 0.037 µM | 9.814 ± 0.053 µM | 11.33 ± 0.016 µM |  | O=C(/C=C/C=C/c1ccc2c(c1)OCO2)N1CCCCC1 [Piperine, reference compound]
